Experimental data as given in patent US11629333B2, “Gamma delta T cells and a method of augmenting the tumoricidal activity of the same” (Agency for Science, Technology and Research, priority 2017, dated 2023).

Columns and labels:
[1] = tested on: CTLA-4, PD1, LAG3, TIGIT, TIM3, and BTLA; test: Expression of co-inhibitory receptors on PBMCs and expanded cells by flow cytometry; assay type: cell-based, human
Text: FIGS. 2A to 2F (collectively referred to as “FIG. 2”) show the expression of co-inhibitory receptors CTLA-4 (FIG. 2A), PD-1 (FIG. 2B), LAG-3 (FIG. 2C), TIGIT (FIG. 2D), TIM-3 (FIG. 2E) and BTLA (FIG. 2F) on PBMCs and the expanded cells. Human PBMCs were first expanded with Zometa for 7 days, followed by treatment with Zometa, OKT3 and gamma-irradiated K562 aAPCs for another 10 days. The expression frequencies of 6 co-inhibitory receptors on PBMCs and on the expanded cells collected on day 7 and day 17 analyzed by flow cytometry are shown. PBMC samples from 7 donors were tested and each sample is represented by one line.
(§1) For Vγ9Vδ2 T cell activation and expansion, PBMCs were seeded at a density of 2E6 cells/ml in AIM-V (Life Technologies) supplemented with 5% human AB serum (Valley Biomedical, Winchester, Va.). Zometa (5 μM, Sigma Aldrich, St. Louis, Mo.) and IL-2 (300 IU/ml) were added on day 0, followed by adding 50 ng/ml anti-CD3 antibody (OKT3 clone, eBioscience, San Diego, Calif.), gamma irradiated K562 aAPCs at a 100:1 ratio, 300 IU/ml IL-2, and 5 μM Zometa from day 7 onwards. […] The culture medium was refreshed every 2 to 3 days. In other words, the cells were passaged every 2 to 3 days.
In view of the important roles of co-inhibitory receptors in cancer therapy, the expression of six of them, namely, CTLA-4, PD1, LAG3, TIGIT, TIM3, and BTLA, on the Zometa-expanded Vγ9Vδ2 T cells was examined using flow cytometry (FIG. 2).

[2] = tested on: SW480 human colon carcinoma cells, HepG2 human hepatocarcinoma cells, U87 human glioblastoma cells and SKOV3 human ovarian cancer cells; test: Delfia EuTDA cytotoxicity assay, tumor cells with or without Zometa pre-treatment; assay type: cell-based; settings: 1 μM Zometa pre-treatment of tumor cells
Method: Target tumor cells tested were SW480 human colon carcinoma, HepG2 human hepatocarcinoma cells, U87 human glioblastoma cells and SKOV3 human ovarian cancer cells. Tumor cells were either pre-treated with 1 μM Zometa or without Zometa treatment. Effector used are indicated. Delfia EuTDA cytotoxicity assay (3 hours EuTDA culturing) was used to assess tumor cell lysis efficiency at an effector to target ratio of 10:1. The results of one representative experiment out of three are shown.
The cytolytic activity of CAR-modified Vγ9Vδ2 T cells was examined with a non-radioactive method (DELFIA EuTDA Cytotoxicity Reagents kit, PerkinElmer, MA). Time-resolved fluorescence was measured in Victor3 multilabel plate counter (PerkinElmer). The effector to target (E:T) ratios used ranged from 20:1 to 2.5:1. Control groups were set up to measure spontaneous release (only target cells added), maximum release (target cells added with 10 μl lysis buffer), and medium background (no cell added). Killing efficacy was calculated by using the following formula: […]
Zometa treatment was used because Zometa can increase intracellular levels of IPP, thereby increasing the sensitivity of tumor cells to Vγ9Vδ2 T cells.

Human PBMCs = test: Expansion of Vγ9Vδ2 T cells from PBMCs, cell frequencies by flow cytometry; assay type: cell-based
Text: FIGS. 1A to 1D (collectively referred to as “FIG. 1”) show the characterization of the cells expanded with Zometa, OKT3 and gamma-irradiated K562 aAPCs. Human PBMCs were first expanded with Zometa for 7 days, followed by treatment with Zometa, OKT3 and gamma-irradiated K562 aAPCs for another 10 days. Frequencies of Vγ9Vδ2 T cells (FIG. 1A), NKG2D-positive cells (FIG. 1B), CD3-positive alpha beta T cells (FIG. 1C) and CD3-negative, CD56-positive NK cells (FIG. 1D) in PBMCs, on day 7 and day 17 analyzed by flow cytometry are shown. PBMC samples from 7 donors were tested and each sample is represented by one line.
Human PBMC were isolated from fresh buffy coat of healthy donors by density gradient centrifugation using Ficoll-Paque (GE Healthcare, Milwaukee, Wis.). Human myelogenous leukemia cell line K562 (ATCC) and a K562-based aAPC cell line genetically engineered for stable expression of EGFP, CD86, CD64 and 4-1BBL (Du et al., 2016) were cultured in IMDM (Lonza Biotech, Basel, Switzerland) supplemented with 10% FBS. Other tumor cell lines used in the present invention were cultured in DMEM supplemented with 10% FBS.
as §1

[3] = 7 days after Zometa treatment, all 7 samples
[4] = PBMCs treated with Zometa, day 7

For O=P(O)(O)C(O)(Cn1ccnc1)P(=O)(O)O [Zometa, zoledronic acid], the CTLA-4-expressing cells [1, 3] was “significant increase”, the LAG3-expressing cells [1, 3] was “significant increase” and the TIGIT-expressing cells [1, 3] was “significant increase”. For the same molecule, the TIM3-expressing cells [1, 3] was “significant increase”, the “frequency of PD1-positive cells” value ([1]; 7 days after Zometa treatment, remaining samples (one sample increased, one decreased)) was “minor increase or no change” and the BTLA expression ([1]; Zometa treatment for 7 days) was “reduced”. For the same molecule, the “sensitivity of HepG2 cells towards Vγ9Vδ2 T cells” value ([2]; HepG2) was “not”, the “sensitivity of SKOV3 cells towards Vγ9Vδ2 T cells” value ([2]; SKOV3) was “significantly increased” and the “sensitivity of SW480 cells towards Vγ9Vδ2 T cells” value ([2]; SW480) was “significantly increased”. The “sensitivity of U87 cells towards Vγ9Vδ2 T cells” value ([2]; U87) was “significantly increased”, the NKG2D-positive cell population (Human PBMCs; PBMCs treated with 5 μM Zometa, day 0 to day 7) was “increase” and the “Vγ9Vδ2 T-cell population” value (Human PBMCs; PBMCs treated with 5 μM Zometa, day 7) was ~90%. For the same molecule, the “proportion of NK cells” value (Human PBMCs; [4]) was “less than 3%” and the “proportion of αβ T cells” value (Human PBMCs; [4]) was “less than 10%”.
